Laboratory results as given in ChEMBL document CHEMBL5365550, “Targeting the Inhibition of B-Cell Lymphoma 2 Protein for the Treatment of Cancer” (ACS Med Chem Lett, 2023).
pEC50, pKi: −log10 of the molar value.

Legend:
[1] = biological target: Bcl-2-like protein 1 (Homo sapiens, UniProt Q07817); test: Inhibition of human Bcl-xL expressed in Escherichia coli BL21(DE3) T1R cells preincubated under shaking condition for 1 min and measured after 3 hrs by TR-FRET assay
[2] = tested on: RS4-11; test: Cytotoxicity against human RS4-11 cells assessed as reduction in cell viability by CellTiter-Glo assay; format: functional, cell-based
[3] = tested on: MOLT-4; test: Cytotoxicity against human MOLT-4 cells assessed as reduction in cell viability by CellTiter-Glo assay; format: functional, cell-based
[4] = biological target: Apoptosis regulator Bcl-2 (Homo sapiens, UniProt P10415); test: Inhibition of human Bcl-2 expressed in Escherichia coli BL21(DE3) T1R cells preincubated under shaking condition for 1 min and measured after 3 hrs by TR-FRET assay
Sequence of Apoptosis regulator Bcl-2 (P10415 whole entry): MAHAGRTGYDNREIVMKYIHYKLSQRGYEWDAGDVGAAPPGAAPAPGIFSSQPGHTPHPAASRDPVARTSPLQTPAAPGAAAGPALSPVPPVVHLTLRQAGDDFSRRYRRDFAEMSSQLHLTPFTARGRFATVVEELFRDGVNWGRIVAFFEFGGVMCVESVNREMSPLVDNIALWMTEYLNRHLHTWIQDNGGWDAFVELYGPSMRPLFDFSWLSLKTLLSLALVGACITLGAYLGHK

Sequence of Bcl-2-like protein 1 (Q07817 whole entry): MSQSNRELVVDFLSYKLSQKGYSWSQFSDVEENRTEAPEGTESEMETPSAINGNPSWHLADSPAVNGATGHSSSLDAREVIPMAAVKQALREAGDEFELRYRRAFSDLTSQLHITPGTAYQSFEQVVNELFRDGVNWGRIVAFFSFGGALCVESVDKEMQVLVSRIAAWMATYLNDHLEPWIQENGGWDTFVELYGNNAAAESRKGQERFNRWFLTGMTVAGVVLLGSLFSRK

`CC1(C)CC(c2ccc(Cl)cc2)=C2CN3CCN(c4ccc(C(=O)NS(=O)(=O)c5ccc(NC[C@H]6CC[C@](C)(O)CO6)c([N+](=O)[O-])c5)c(N5CCCOc6nc7[nH]ccc7cc65)c4)C[C@H]3COCCCO[C@@H]2C1` gave a pKi [1] of 8.03, a pEC50 [2] of 9.19 and a pEC50 [3] of 5.92. The pKi [4] was 10.31.
`CC1(C)CC(c2ccc(Cl)cc2)=C2CN3CCN(c4ccc(C(=O)NS(=O)(=O)c5ccc(NC[C@H]6CC[C@H](O)CO6)c([N+](=O)[O-])c5)c(N5CCCOc6nc7[nH]ccc7cc65)c4)C[C@H]3COCCCO[C@@H]2C1` was tested, and the pEC50 [2] was 9.02 and the pEC50 [3] was 6.08.
For `COCC1(F)CC(CNc2ccc(S(=O)(=O)NC(=O)c3ccc(N4CCN5CC6=C(c7ccc(Cl)cc7)CC(C)(C)C[C@H]6OCCCOC[C@@H]5C4)cc3N3CCCOc4nc5[nH]ccc5cc43)cc2[N+](=O)[O-])C1` (stereo partly drawn), the pKi [1] was 7.59, the pEC50 [2] was 7.96 and the pEC50 [3] was under 5.00. The pKi [4] was 9.55.
`CC1(C)CC(c2ccc(Cl)cc2)=C2CN3CCN(c4ccc(C(=O)NS(=O)(=O)c5ccc(NCC6(O)CCOCC6)c([N+](=O)[O-])c5)c(N5CCCOc6nc7[nH]ccc7cc65)c4)C[C@H]3COCCCO[C@@H]2C1` gave a pKi [1] of 8.08, a pEC50 [2] of 8.84 and a pEC50 [3] of 6.37. It also gave a pKi [4] of 9.65.
Compound `CC1(C)CC(c2ccc(Cl)cc2)=C2CN3CCN(c4ccc(C(=O)NS(=O)(=O)c5ccc(NC[C@H]6CC[C@](C)(O)CC6)c(Cl)c5)c(N5CCCOc6nc7[nH]ccc7cc65)c4)C[C@H]3COCCCO[C@@H]2C1` has a pKi [1] of 7.53, a pEC50 [2] of 7.75 and a pEC50 [3] of under 5.00. The pKi [4] was 10.07.
For `CO[C@H]1C[C@H](Nc2ccc(S(=O)(=O)NC(=O)c3ccc(N4CCN5CC6=C(c7ccc(Cl)cc7)CC(C)(C)C[C@H]6OCCCOC[C@@H]5C4)cc3N3CCCOc4nc5[nH]ccc5cc43)cc2[N+](=O)[O-])C1`, the pKi [1] was 7.41, the pEC50 [2] was 8.39 and the pEC50 [3] was under 5.00. The pKi [4] was 8.59.
`CC1(C)CC(c2ccc(Cl)cc2)=C2CN3CCN(c4ccc(C(=O)NS(=O)(=O)c5ccc(NC[C@H]6CC[C@@](C)(O)CC6)c([N+](=O)[O-])c5)c(N5CCCOc6nc7[nH]ccc7cc65)c4)C[C@H]3COCCCO[C@@H]2C1` was tested, and the pKi [1] was 7.95, the pEC50 [2] was 8.83 and the pEC50 [3] was 6.93. For the same compound, the pKi [4] was 10.21.
`CC1(C)CC(c2ccc(Cl)cc2)=C2CN3CCN(c4ccc(C(=O)NS(=O)(=O)c5cnc(OCC6(F)CCOCC6)c(Cl)c5)c(N5CCCOc6nc7[nH]ccc7cc65)c4)C[C@H]3COCCCO[C@@H]2C1` was tested, and the pKi [1] was under 6.18, the pEC50 [2] was 8.26 and the pEC50 [3] was under 5.00.
`CO[C@H]1CC[C@H](CNc2ccc(S(=O)(=O)NC(=O)c3ccc(N4CCN5CC6=C(c7ccc(Cl)cc7)CC(C)(C)C[C@H]6OCCCOC[C@@H]5C4)cc3N3CCCOc4nc5[nH]ccc5cc43)cc2[N+](=O)[O-])OC1` was tested, and the pEC50 [3] was 5.77.
`CC1(C)CC(c2ccc(Cl)cc2)=C2CN3CCN(c4ccc(C(=O)NS(=O)(=O)c5ccc(NC[C@H]6COCCO6)c([N+](=O)[O-])c5)c(N5CCCOc6nc7[nH]ccc7cc65)c4)C[C@H]3COCCCO[C@@H]2C1` showed a pKi [1] of 8.24, a pEC50 [2] of 8.87 and a pEC50 [3] of 5.85. For the same compound, the pKi [4] was 10.47.
`COC1(CNc2ccc(S(=O)(=O)NC(=O)c3ccc(N4CCN5CC6=C(c7ccc(Cl)cc7)CC(C)(C)C[C@H]6OCCCOC[C@@H]5C4)cc3N3CCCOc4nc5[nH]ccc5cc43)cc2[N+](=O)[O-])CCOCC1` showed a pKi [1] of 7.39, a pEC50 [2] of 8.36 and a pEC50 [3] of under 5.00. It also gave a pKi [4] of 8.68.
